Values joined by “and” are separate entries in the source; they are usually repeats but may differ in a detail not shown here. Equal entries are not always repeated. After the bases stand the sugars from the 5' end (letter, count) and the backbone: PS all phosphorothioate, else s phosphorothioate and o phosphodiester by linkage. Methylation of C is not given here. e = 2'-O-(2-methoxyethyl) (MOE); k = constrained ethyl (cEt); d = 2'-deoxy (DNA)
Target: IRF4
Conditions: ASO

Sequence | target mRNA inhibition (SK-MEL-28, 4 µM) | target mRNA inhibition (MM.1R, 1 µM) | further results
GTATTTCATAGCTAGT (sugars k3 d10 k3, PS) | 69% | – | –
GTCAAAAAGATGCAGA (sugars k3 d10 k3, PS) | 50% | – | –
GTCAATACTGAAAGGC (sugars k3 d10 k3, PS) | 66% | – | –
GTCACCTGGCAACCAT (sugars k3 d10 k3, PS) | 41% | – | –
GTCACTTACACCCAGA (sugars k3 d10 k3, PS) | 52% | – | –
GTCAGCTCCATCCTGC (sugars k3 d10 k3, PS) | 52% | – | –
GTCATTGCTCTTGTTC (sugars k3 d10 k3, PS) | – | 18% | –
GTCCAGAGTCTTCAGA (sugars k3 d10 k3, PS) | 6% | – | –
GTCCCTCCAGCTTCGG (sugars k3 d10 k3, PS) | 3% | – | –
GTCCGACGCACCGCGG (sugars k3 d10 k3, PS) | 18% | – | –
GTCCGCCCCGCGCGGT (sugars k3 d10 k3, PS) | – | 3% | –
GTCGAACCTCTGGTTC (sugars k3 d10 k3, PS) | -10% | – | –
GTCGCGCAAGTCTACA (sugars k3 d10 k3, PS) | – | 4% and 16% | –
GTCTAAACCAGCATAT (sugars k3 d10 k3, PS) | 19% | – | –
GTCTAAAGTCCCATCG (sugars k3 d10 k3, PS) | 40% | – | –
GTCTATGGGATTATAT (sugars k3 d10 k3, PS) | 21% | – | –
GTCTCAGTTTGAAGCA (sugars k3 d10 k3, PS) | 69% and 74% | – | –
GTCTGGCTAGCAGAGG (sugars k4 d8 k4, PS) | 9% | – | –
GTGAAAACACTCATGG (sugars k3 d10 k3, PS) | 60% | – | –
GTGATAGCTGAGCTGA (sugars k2 d9 e3 k2, PS) | – | 13% | –
GTGATAGCTGAGCTGA (sugars k3 d10 k3, PS) | – | 70% and 75% | target mRNA inhibition (H929, 0.04 µM): 51% and 42%; target mRNA inhibition (KMS11, 0.2 µM): 77% and 89%; target mRNA inhibition (MM.1R, 0.0625 µM): 13% and 17%; target mRNA inhibition (MM.1R, 0.25 µM): 38% and 47%; target mRNA inhibition (MM.1R, 4 µM): 89% and 88%
GTGATAGCTGAGCTGA (sugars kkddddddddddkeke, PS) | – | 35% | –
GTGATAGCTGAGCTGA (sugars kkdddddddddekeke, PS) | – | 24% | –
GTGATAGGTATACTTA (sugars k3 d10 k3, PS) | 65% | – | –
GTGATGTCAGGTTTTC (sugars k3 d10 k3, PS) | – | 66% | target mRNA inhibition (MM.1R, 0.074 µM): 11%; target mRNA inhibition (MM.1R, 0.222 µM): 38%; target mRNA inhibition (MM.1R, 0.666 µM): 66%; target mRNA inhibition (MM.1R, 2 µM): 90%

Sequence | target mRNA inhibition (SK-MEL-28, 4 µM) | target mRNA inhibition (MM.1R, 1 µM) | further results
GTGATGTCAGGTTTTC (sugars kkddddddddddkeke, PS) | – | 18% | –
GTGGAACTCATAGGTG (sugars k3 d10 k3, PS) | 53% | – | –
GTGGGTCCCAAGATCG (sugars k3 d10 k3, PS) | 40% | – | –
GTGTAAGGTCTGAGAG (sugars k3 d10 k3, PS) | 16% | – | –
GTGTCTAAAGTCCCAT (sugars kddddddddddkekek, PS) | – | 34% and 23% | –
GTGTGCTTGCCAAGCC (sugars k3 d10 k3, PS) | – | 66% and 63% | target mRNA inhibition (MM.1R, 0.0625 µM): 35%; target mRNA inhibition (MM.1R, 0.25 µM): 23%; target mRNA inhibition (MM.1R, 4 µM): 87%
GTGTGCTTGCCAAGCC (sugars kkdddddddddkekek, PS) | – | 41% and 39% | –
GTGTTCCAGGAGATAT (sugars k3 d10 k3, PS) | – | 30% | –
GTTAAAGCAGCATAAT (sugars k3 d10 k3, PS) | 27% | – | –
GTTAAGTACTTGGACA (sugars k3 d10 k3, PS) | 32% | – | –
GTTAATAATGCTTGCA (sugars k3 d10 k3, PS) | 2% | – | –
GTTACCGCATTGCTAG (sugars k3 d10 k3, PS) | – | 16% | –
GTTACTAATTCCATAG (sugars k3 d10 k3, PS) | 49% | – | –
GTTCAAAGCGCACCGC (sugars k3 d10 k3, PS) | 65% | – | –
GTTCATACCCAATAGT (sugars k3 d10 k3, PS) | 66% | – | –
GTTCATATCACAGAGC (sugars k3 d10 k3, PS) | 45% | – | –
GTTCCTGTCACCTGGC (sugars k4 d8 k4, PS) | 12% | – | –
GTTCTCTACTGTTTGT (sugars k3 d10 k3, PS) | 68% | – | –
GTTGCATAGGCATCCT (sugars k3 d10 k3, PS) | – | 27% | –
GTTGCATGGCTAATGA (sugars k3 d10 k3, PS) | 61% | – | –
GTTGCCGAGATATAAA (sugars k3 d10 k3, PS) | – | 13% | –
GTTGGCTGGTCTTTGT (sugars k3 d10 k3, PS) | – | 63% | –
GTTGGCTGGTCTTTGT (sugars kdddddddddkekeke, PS) | – | 18% | –
GTTGGCTGGTCTTTGT (sugars kkdddddddddkekek, PS) | – | 62% | –
GTTGTAAATGAGTCGG (sugars e1 k2 d9 k2 e2, PS) | – | 69% | target mRNA inhibition (MM.1R, 0.074 µM): 17%; target mRNA inhibition (MM.1R, 0.222 µM): 38%; target mRNA inhibition (MM.1R, 0.666 µM): 57%; target mRNA inhibition (MM.1R, 2 µM): 79%

Sequence | target mRNA inhibition (SK-MEL-28, 4 µM) | target mRNA inhibition (MM.1R, 1 µM) | further results
GTTGTACAGGACAGGT (sugars k3 d10 k3, PS) | – | 33% | –
GTTGTAGTCCTGCTTG (sugars k3 d10 k3, PS) | 22% | – | –
GTTGTCTGGCTAGCAG (sugars k3 d10 k3, PS) | 59% | – | target mRNA inhibition (SK-MEL-28, 0.185 µM): 20%; target mRNA inhibition (SK-MEL-28, 5 µM): 70%; target mRNA inhibition (SK-MEL-28, 15 µM): 89%
GTTTACACTGGATCTG (sugars k3 d10 k3, PS) | 61% | – | –
GTTTACTAACTGGCTT (sugars k3 d10 k3, PS) | 27% | – | –
TAAAAGGTTCCTGTCA (sugars k4 d8 k4, PS) | 43% | – | –
TAAAGAGCGCATTTCA (sugars k3 d10 k3, PS) | 41% | – | –
TAAAGATGCCAGAGGG (sugars k3 d10 k3, PS) | 39% | – | –
TAAATCACCCTGGTCA (sugars k3 d10 k3, PS) | 22% | – | –
TAACAAGTTATCCAGT (sugars k3 d10 k3, PS) | 12% | – | –
TAACAATACTGTAAGG (sugars k3 d10 k3, PS) | 45% | – | –
TAACACGGTGTTGACA (sugars k3 d10 k3, PS) | 35% | – | –
TAACTTCTCCTGTGCA (sugars k3 d10 k3, PS) | – | 15% | –
TAATATAGTTGTCTGG (sugars k3 d10 k3, PS) | 40% | – | –
TAATTTTAAGGCCCTG (sugars k3 d10 k3, PS) | 39% | – | –
TACAGGACAGGTAAAG (sugars k3 d10 k3, PS) | – | -29% | –
TACATGGCAGTGGAGC (sugars k3 d10 k3, PS) | 71% | – | –
TACATTCACACTGCCG (sugars k3 d10 k3, PS) | 50% and 58% | – | target mRNA inhibition (MM.1R, 0.074 µM): -3%; target mRNA inhibition (MM.1R, 0.222 µM): 2%; target mRNA inhibition (MM.1R, 0.666 µM): 15%; target mRNA inhibition (MM.1R, 2 µM): 9%
TACCCTGGATCACTCA (sugars k3 d10 k3, PS) | 65% | – | –
TACCGATGCTTCAAGA (sugars k3 d10 k3, PS) | – | -3% | –
TACCTCAGTTTGTGAA (sugars k3 d10 k3, PS) | – | 11% | –
TACGACAACTTTCCTG (sugars k3 d10 k3, PS) | 41% | – | –
TACTAACTGGCTTCCA (sugars k3 d10 k3, PS) | 28% | – | –
TACTAGGTGCTTGTTG (sugars k3 d10 k3, PS) | 49% | – | –
TACTGCTTGAGGTTTT (sugars kddddddddddkekek, PS) | – | 24% | –

Sequence | target mRNA inhibition (SK-MEL-28, 4 µM) | target mRNA inhibition (MM.1R, 1 µM) | further results
TACTGTTACCGATGCT (sugars k3 d10 k3, PS) | – | 37% and 18% | target mRNA inhibition (MM.1R, 0.0625 µM): -6%; target mRNA inhibition (MM.1R, 0.25 µM): -4%; target mRNA inhibition (MM.1R, 4 µM): 38%
TACTGTTACCGATGCT (sugars kdddddddddkekeke, PS) | – | 18% | –
TACTGTTACCGATGCT (sugars kkdddddddddkekek, PS) | – | 9% and 27% | –
TAGAAAGAGCTGGTAG (sugars k3 d10 k3, PS) | 9% | – | –
TAGAAGCCCACAAGAA (sugars k3 d10 k3, PS) | 1% | – | –
TAGCAAATGGCAAGTT (sugars k3 d10 k3, PS) | 17% | – | –
TAGCAGAGGTTCTACG (sugars k3 d10 k3, PS) | 24% | – | –
TAGCATGGATCCTGAG (sugars k3 d10 k3, PS) | 0% | – | –
TAGGACTAAGGACAGC (sugars k3 d10 k3, PS) | – | -5% | –
TAGGCACATCAATGTT (sugars k3 d10 k3, PS) | – | 12% | –
TAGGTCATACCCTGGA (sugars k3 d10 k3, PS) | 72% | – | –
TAGTAGGTAAGATCTC (sugars k3 d10 k3, PS) | 23% | – | –
TAGTATGAGAAACGGC (sugars e1 k2 d9 k2 e2, PS) | – | 38% | –
TAGTATGAGAAACGGC (sugars k2 d9 e3 k2, PS) | – | 37% | –
TAGTATGAGAAACGGC (sugars k3 d10 k3, PS) | 78% | – | target mRNA inhibition (H929, 0.04 µM): 33% and 47%; target mRNA inhibition (KMS11, 0.2 µM): 65% and 85%
TAGTATGAGAAACGGC (sugars kdddddddddkekeke, PS) | – | 32% | –
TAGTATGAGAAACGGC (sugars kkdddddddddkekek, PS) | – | 27% | –
TAGTCGACAGCTAAAG (sugars k3 d10 k3, PS) | 46% | – | –
TAGTGCTGTGCAGACC (sugars k3 d10 k3, PS) | 32% | – | –
TAGTGTCGCCATGGCT (sugars k3 d10 k3, PS) | 69% | – | –
TATAACGGTGTTTCAG (sugars k3 d10 k3, PS) | – | 36% | –
TATACCAACGACAGCA (sugars k3 d10 k3, PS) | 49% | – | –
TATAGAATTAGGTGCT (sugars k3 d10 k3, PS) | 40% | – | –

Reference: the OligoGym collection
